From patent US10294202B2, “Pyrrolidinones as herbicides” (FMC Corporation, priority 2013, dated 2019)

Experiments:
kochia = test: Test A pre-/postemergence herbicide test; assay type: in vivo, Kochia scoparia
Description: (§1) Seeds of plant species selected from bamyardgrass (Echinochloa crus-galli), kochia (Kochia scoparia), ragweed (common ragweed, Ambrosia elatior), ryegrass, Italian (Italian ryegrass, Lolium multiflorum), crabgrass, large (large crabgrass Digitaria sanguinalis), giant foxtail (Setaria faberii), morningglory (Ipomoea spp.), pigweed (Amaranthus retroflexus), velvetleaf (Abutilon theophrasti), wheat (Triticum aestivum), and corn (Zea mays) were planted into a blend of loam soil and sand and treated preemergence with a directed soil spray using test chemicals formulated in a non-phytotoxic solvent mixture which included a surfactant. At the same time, plants selected from these crop and weed species and also blackgrass (Alopecurus myosuroides), and galium (catchweed bedstraw, Galium aparine) were planted in pots containing the same blend of loam soil and sand and treated with postemergence applications of test chemicals formulated in the same manner. Plants ranged in height from 2 to 10 cm and were in the one- to two-leaf stage for the postemergence treatment. Treated plants and untreated controls were maintained in a greenhouse for approximately 10 days, after which time all treated plants were compared to untreated controls and visually evaluated for injury. Plant response ratings, summarized in Table A, are based on a 0 to 100 scale where 0 is no effect and 100 is complete control. A dash (-) response means no test result.

barnyardgrass = test: Test A pre-/postemergence herbicide test; assay type: in vivo, Echinochloa crus-galli
Procedure, shortened: (§2)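 Seeds sown in loam soil/sand blend received a preemergence directed soil spray of test chemical in non-phytotoxic solvent with surfactant; postemergence plants (2–10 cm, one- to two-leaf stage) were sprayed with the same formulation. After about 10 days in greenhouse, injury was rated visually versus untreated controls, 0 (no effect) to 100 (complete control).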

pigweed = test: Test A pre-/postemergence herbicide test; assay type: in vivo, Amaranthus retroflexus
Procedure, shortened: as §2

ryegrass, Italian = test: Test A pre-/postemergence herbicide test; assay type: in vivo, Lolium multiflorum
Description: as §1

ragweed = test: Test A pre-/postemergence herbicide test; assay type: in vivo, Ambrosia elatior
Description: as §1

giant foxtail = test: Test A pre-/postemergence herbicide test; assay type: in vivo, Setaria faberii
Procedure, shortened: as §2

blackgrass = test: Test A postemergence herbicide test; assay type: in vivo, Alopecurus myosuroides; details: for Blackgrass plant response rating (0 to 100 scale, 0 is no effect, 100 is complete control): 500 g ai/ha
Procedure, shortened: (§3)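 Potted in loam soil/sand blend; postemergence application at 1–2 leaf stage (2–10 cm). Greenhouse ~10 d. Visual injury vs untreated, 0–100 scale; 100 = complete control.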

wheat = test: Test A pre-/postemergence herbicide test; assay type: in vivo, Triticum aestivum; details: Postemergence; for Wheat plant response rating (0 to 100 scale, 0 is no effect, 100 is complete control): 500 g ai/ha
Procedure, shortened: as §2

corn = test: Test A pre-/postemergence herbicide test; assay type: in vivo, Zea mays; details: Postemergence; for Corn plant response rating (0 to 100 scale, 0 is no effect, 100 is complete control): 500 g ai/ha
Procedure, shortened: as §2

galium = test: Test A postemergence herbicide test; assay type: in vivo, Galium aparine; details: for Galium plant response rating (0 to 100 scale, 0 is no effect, 100 is complete control): 500 g ai/ha
Procedure, shortened: as §3

[1] = Postemergence, 1000 g ai/ha, 0 to 100 scale (0 no effect, 100 complete control)
[2] = preemergence, 1000 g ai/ha, 0 to 100 scale
[3] = 1000 g ai/ha, 0 to 100 scale (0 no effect, 100 complete control)
[4] = 125 g ai/ha, visual rating, 0 to 100 scale, 0 no effect, 100 complete control, approximately 10 days, preemergence
[5] = Postemergence, 125 g ai/ha, 0 to 100 scale, 0 is no effect, 100 is complete control
[6] = preemergence, 500 g ai/ha, 0 to 100 scale, 0 is no effect and 100 is complete control
[7] = 125 g ai/ha, 0 to 100 scale, 0 is no effect, 100 is complete control

O=C1NCC(c2cccc(-c3ccccc3F)c2)C1C(=O)Nc1ccccc1C(F)(F)F (centres unmarked) [Compound 238]
50: Plant response rating, Barnyardgrass (barnyardgrass; preemergence, 1000 g ai/ha, 0 to 100 scale (0 no effect, 100 complete control))
0: Plant response rating, Kochia (kochia; [1]) | Plant response rating, Kochia (kochia; [2]) | Plant response rating, Pigweed (pigweed; [1]) | Plant response rating, Pigweed (pigweed; [2]) | Plant response rating, Ryegrass, Italian (ryegrass, Italian; [1]) | Plant response rating, Ryegrass, Italian (ryegrass, Italian; [2]) | Plant response rating, Ragweed (ragweed; [1]) | Plant response rating, Ragweed (ragweed; [2]) | Plant response rating, Wheat (wheat; [3]) | Plant response rating, Corn (corn; [3])
90: Plant response rating, Foxtail, Giant (giant foxtail; [2])
20: Plant response rating, Blackgrass (blackgrass; [3]) | Plant response rating, Galium (galium; [3])
30: Plant response rating, Barnyardgrass (barnyardgrass; [1]) | Plant response rating, Foxtail, Giant (giant foxtail; [1])

COc1ccc(NC(=O)C2C(=O)NCC2c2cccc(C(F)(F)F)c2)cc1F (racemic) [Compound 188]
0: Plant response rating, Kochia (kochia; [4]) | Plant response rating, Kochia (kochia; [5]) | Kochia plant response rating (0 to 100 scale, 0 is no effect, 100 is complete control) (kochia; Postemergence, 500 g ai/ha) | Plant response rating, Kochia (kochia; [6]) | Plant response rating, Barnyardgrass (barnyardgrass; [4]) | Plant response rating, Barnyardgrass (barnyardgrass; [5]) | Barnyardgrass plant response rating (0 to 100 scale, 0 is no effect, 100 is complete control) (barnyardgrass; Postemergence, 500 g ai/ha) | Plant response rating, Barnyardgrass (barnyardgrass; [6]) | Plant response rating, Pigweed (pigweed; [4]) | Plant response rating, Pigweed (pigweed; [5]) | Pigweed plant response rating (0 to 100 scale, 0 is no effect, 100 is complete control) (pigweed; Postemergence, 500 g ai/ha) | Plant response rating, Pigweed (pigweed; [6]) | Plant response rating, Ryegrass, Italian (ryegrass, Italian; [4]) | Plant response rating, Ryegrass, Italian (ryegrass, Italian; [5]) | Ryegrass, Italian plant response rating (0 to 100 scale, 0 is no effect, 100 is complete control) (ryegrass, Italian; Postemergence, 500 g ai/ha) | Plant response rating, Ryegrass, Italian (ryegrass, Italian; [6]) | Plant response rating, Ragweed (ragweed; [4]) | Plant response rating, Ragweed (ragweed; [5]) | Ragweed plant response rating (0 to 100 scale, 0 is no effect, 100 is complete control) (ragweed; Postemergence, 500 g ai/ha) | Plant response rating, Ragweed (ragweed; [6]) | Plant response rating, Foxtail, Giant (giant foxtail; [4]) | Plant response rating, Foxtail, Giant (giant foxtail; [5]) | Foxtail, Giant plant response rating (0 to 100 scale, 0 is no effect, 100 is complete control) (giant foxtail; Postemergence, 500 g ai/ha) | Plant response rating, Foxtail, Giant (giant foxtail; [6]) | Plant response rating, Blackgrass (blackgrass; [7]) | Blackgrass plant response rating (0 to 100 scale, 0 is no effect, 100 is complete control) (blackgrass) | Plant response rating, Wheat (wheat; [7]) | Wheat plant response rating (0 to 100 scale, 0 is no effect, 100 is complete control) (wheat) | Plant response rating, Corn (corn; [7]) | Corn plant response rating (0 to 100 scale, 0 is no effect, 100 is complete control) (corn) | Plant response rating, Galium (galium; [7]) | Galium plant response rating (0 to 100 scale, 0 is no effect, 100 is complete control) (galium)

Cc1ccc(NC(=O)C2C(=O)NCC2c2cccc(C(F)(F)F)c2)cc1C(F)(F)F (racemic) [Compound 186]
0: Plant response rating, Kochia (kochia; [4]) | Plant response rating, Kochia (kochia; [5]) | Kochia plant response rating (0 to 100 scale, 0 is no effect, 100 is complete control) (kochia; Postemergence, 500 g ai/ha) | Plant response rating, Kochia (kochia; [6]) | Plant response rating, Barnyardgrass (barnyardgrass; [4]) | Plant response rating, Barnyardgrass (barnyardgrass; [5]) | Barnyardgrass plant response rating (0 to 100 scale, 0 is no effect, 100 is complete control) (barnyardgrass; Postemergence, 500 g ai/ha) | Plant response rating, Barnyardgrass (barnyardgrass; [6]) | Plant response rating, Pigweed (pigweed; [4]) | Plant response rating, Pigweed (pigweed; [5]) | Pigweed plant response rating (0 to 100 scale, 0 is no effect, 100 is complete control) (pigweed; Postemergence, 500 g ai/ha) | Plant response rating, Pigweed (pigweed; [6]) | Plant response rating, Ryegrass, Italian (ryegrass, Italian; [4]) | Plant response rating, Ryegrass, Italian (ryegrass, Italian; [5]) | Ryegrass, Italian plant response rating (0 to 100 scale, 0 is no effect, 100 is complete control) (ryegrass, Italian; Postemergence, 500 g ai/ha) | Plant response rating, Ryegrass, Italian (ryegrass, Italian; [6]) | Plant response rating, Ragweed (ragweed; [4]) | Plant response rating, Ragweed (ragweed; [5]) | Ragweed plant response rating (0 to 100 scale, 0 is no effect, 100 is complete control) (ragweed; Postemergence, 500 g ai/ha) | Plant response rating, Ragweed (ragweed; [6]) | Plant response rating, Foxtail, Giant (giant foxtail; [4]) | Plant response rating, Foxtail, Giant (giant foxtail; [5]) | Foxtail, Giant plant response rating (0 to 100 scale, 0 is no effect, 100 is complete control) (giant foxtail; Postemergence, 500 g ai/ha) | Plant response rating, Foxtail, Giant (giant foxtail; [6]) | Plant response rating, Blackgrass (blackgrass; [7]) | Blackgrass plant response rating (0 to 100 scale, 0 is no effect, 100 is complete control) (blackgrass) | Plant response rating, Wheat (wheat; [7]) | Wheat plant response rating (0 to 100 scale, 0 is no effect, 100 is complete control) (wheat) | Plant response rating, Corn (corn; [7]) | Corn plant response rating (0 to 100 scale, 0 is no effect, 100 is complete control) (corn) | Plant response rating, Galium (galium; [7]) | Galium plant response rating (0 to 100 scale, 0 is no effect, 100 is complete control) (galium)
